From patent US10604512B2, “3-(1H-indol-2-yl)-1H-indazoles and therapeutic uses thereof” (Samumed, LLC, priority 2015, dated 2020)

Tests used:
Assay type in all cases: cell-based
[1] = system: Wnt activity (Sp5-Luc reporter, TCF/LEF binding sites) in SW480 colon carcinoma cells; experiment: Screening assay for Wnt activity: Sp5-Luc reporter gene assay in stably transduced SW480 colon carcinoma cells; conditions: Homo sapiens, overnight incubation, 10-point curve from 10 μM
How it was run: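 SW480 cells stably transduced with a luciferase reporter driven by an Sp5 promoter of eight TCF/LEF sites were plated at 4,000 cells/well in 1% FBS medium. They were exposed overnight at 37° C to a 10-point 1:3 dilution series from 10 μM (0.1% DMSO). Luminescence was normalized to DMSO for four-parameter EC50, or percent inhibition at 10 μM.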

IL-6 = experiment: Inhibition of IL-6 in LPS-stimulated THP-1 human monocyte cells (HTRF); conditions: IL-6 inhibition, LPS-stimulated THP-1 cells, HTRF
How it was run: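 THP-1 cells serum-reduced (1% FBS, 24 h), then 5000 cells/well preincubated 2 h with compound (10-point 1:3 series from 10 μM, 0.1% DMSO) before 500 ng/mL LPS for 22 h at 37 °C. Secreted IL-6 quantified by HTRF 665/620 ratio; DMSO-normalised duplicates fitted to four-parameter EC50; above 10 μM, % inhibition at 10 μM given.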

SW480 colon cancer cells = experiment: Cell viability assay (CellTiter-Blue) in SW480 colon cancer cells; conditions: Homo sapiens, 96 h, four days, CellTiter-Blue
How it was run: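 Four-day viability readout in SW480 cells: compound at 0.0045–10 μM (1:3 series), DMSO controls in eight replicates, CellTiter-Blue fluorescence after ~3 h. Values are regression-derived EC50s, or percent inhibition at 10 μM when EC50 exceeds 10 μM.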

[2] = system: Primary human fibroblasts derived from IPF patients (LL29 cells) treated with TGF-β1; experiment: Inhibition of the fibrotic process: αSMA staining in TGF-β1-treated primary human fibroblasts from IPF patients (LL29 cells); conditions: Fibroblast, 96 h, % αSMA-positive LL29 cells, TGF-β1 20 ng/mL, 4 days
How it was run: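 LL29 IPF-patient fibroblasts in 1% FBS stimulated with TGF-β1 (20 ng/mL) and compound (10 μM–1.87 nM, 0.1% DMSO) for 4 days at 37 °C. SYTOX-positive cells excluded; % αSMA-positive cells imaged, normalized to TGF-β1/DMSO wells; EC50 by nonlinear regression, else % inhibition at 10 μM.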

EC50 [1] | EC50 (IL-6) | EC50 (SW480 colon cancer cells) | SMILES | EC50 [2]
422 nM | 354 nM | 767 nM | CN(C)CCNc1cc(F)cc(-c2cccc3[nH]c(-c4n[nH]c5ccc(-c6cncc(NC(=O)Cc7ccccc7)c6)cc45)cc23)c1 [Compound 458, N-(5-(3-(4-(3-((2-(Dimethylamino)ethyl)amino)-5-fluorophenyl)-1H-indol-2-yl)-1H-indazol-5-yl)pyridin-3-yl)-2-phenylacetamide] | 1010 nM
195 nM | 27 nM | 287 nM | CN(C)CCNc1cc(F)cc(-c2cccc3[nH]c(-c4n[nH]c5ccc(-c6cncc(NC(=O)C7CCC7)c6)cc45)cc23)c1 [Compound 469, N-(5-(3-(4-(3-((2-(Dimethylamino)ethyl)amino)-5-fluorophenyl)-1H-indol-2-yl)-1H-indazol-5-yl)pyridin-3-yl)cyclobutanecarboxamide] | 189 nM
40 nM | 54 nM | 166 nM | CN(C)CCNc1cc(F)cc(-c2cccc3[nH]c(-c4n[nH]c5ccc(-c6cncc(NC(=O)C7CCCC7)c6)cc45)cc23)c1 [Compound 470, N-(5-(3-(4-(3-((2-(Dimethylamino)ethyl)amino)-5-fluorophenyl)-1H-indol-2-yl)-1H-indazol-5-yl)pyridin-3-yl)cyclopentanecarboxamide] | > 10000 nM
689 nM | 731 nM | 1380 nM | CN(C)CCNc1cc(F)cc(-c2cccc3[nH]c(-c4n[nH]c5ccc(-c6cncc(NC(=O)C7CCCCC7)c6)cc45)cc23)c1 [Compound 471, N-(5-(3-(4-(3-((2-(Dimethylamino)ethyl)amino)-5-fluorophenyl)-1H-indol-2-yl)-1H-indazol-5-yl)pyridin-3-yl)cyclohexanecarboxamide] | 1420 nM
80 nM | 169 nM | 677 nM | CS(=O)(=O)NCc1cc(F)cc(-c2cccc3[nH]c(-c4n[nH]c5ccc(-c6cncc(N)c6)cc45)cc23)c1 [Compound 479, N-(3-(2-(5-(5-Aminopyridin-3-yl)-1H-indazol-3-yl)-1H-indol-4-yl)-5-fluorobenzyl)methanesulfonamide] | 134 nM
105 nM | 122 nM | 891 nM | Cc1ccncc1-c1ccc2[nH]nc(-c3cc4c(-c5cc(F)cc(CNS(C)(=O)=O)c5)cccc4[nH]3)c2c1 [Compound 481, N-(3-Fluoro-5-(2-(5-(4-methylpyridin-3-yl)-1H-indazol-3-yl)-1H-indol-4-yl)benzyl)methanesulfonamide] | 156 nM
475 nM | 3140 nM | 3270 nM | CS(=O)(=O)NCc1cc(F)cc(-c2cccc3[nH]c(-c4n[nH]c5ccc(-c6cncc(CN7CCC(F)(F)C7)c6)cc45)cc23)c1 [Compound 502, N-(3-(2-(5-(5-((3,3-Difluoropyrrolidin-1-yl)methyl)pyridin-3-yl)-1H-indazol-3-yl)-1H-indol-4-yl)-5-fluorobenzyl)methane sulfonamide] | 811 nM
1020 nM | 3500 nM | 1400 nM | Fc1ccccc1-c1cccc2[nH]c(-c3n[nH]c4ccc(-c5cncc(OC6CCNCC6)c5)cc34)cc12 [Compound 572, 3-(4-(2-Fluorophenyl)-1H-indol-2-yl)-5-(5-(piperidin-4-yloxy)pyridin-3-yl)-1H-indazole] | 2230 nM
150 nM | 12 nM | 949 nM | Cn1cc(-c2ccc3[nH]nc(-c4cc5c(-c6cccnc6)cccc5[nH]4)c3c2)cn1 [Compound 584, 5-(1-Methyl-1H-pyrazol-4-yl)-3-(4-(pyridin-3-yl)-1H-indol-2-yl)-1H-indazole] | 6820 nM
468 nM | 74 nM | 1250 nM | NC1CN(c2cncc(-c3ccc4[nH]nc(-c5cc6c(N7CCCCC7)cccc6[nH]5)c4c3)n2)C1 [Compound 634, 1-(6-(3-(4-(piperidin-1-yl)-1H-indol-2-yl)-1H-indazol-5-yl)pyrazin-2-yl)azetidin-3-amine] | 794 nM
565 nM | 245 nM | 1800 nM | COc1cncc(-c2ccc3[nH]nc(-c4cc5c(-c6ccsc6)cccc5[nH]4)c3c2)c1 [Compound 704, 5-(5-Methoxypyridin-3-yl)-3-(4-(thiophen-3-yl)-1H-indol-2-yl)-1H-indazole] | 31 nM

Further lines, the molecule ahead of its results:

SMILES | EC50 [1] | EC50 (IL-6) | EC50 (SW480 colon cancer cells) | EC50 [2]
CN(C)CCNc1cc(F)cc(-c2cccc3[nH]c(-c4n[nH]c5ccc(-c6cncc(NC(=O)c7ccccc7)c6)cc45)cc23)c1 [Compound 459, N-(5-(3-(4-(3-((2-(Dimethylamino)ethyl)amino)-5-fluorophenyl)-1H-indol-2-yl)-1H-indazol-5-yl)pyridin-3-yl)benzamide] | 67 nM | 109 nM | 212 nM | 77 nM
CCCC(=O)Nc1cncc(-c2ccc3[nH]nc(-c4cc5c(-c6cc(F)cc(NCCN(C)C)c6)cccc5[nH]4)c3c2)c1 [Compound 465, N-(5-(3-(4-(3-((2-(Dimethylamino)ethyl)amino)-5-fluorophenyl)-1H-indol-2-yl)-1H-indazol-5-yl)pyridin-3-yl)butyramide] | 138 nM | 876 nM | 310 nM | 224 nM
CN(C)CCNc1cc(F)cc(-c2cccc3[nH]c(-c4n[nH]c5ccc(-c6cncc(NC(=O)C7CC7)c6)cc45)cc23)c1 [Compound 468, N-(5-(3-(4-(3-((2-(Dimethylamino)ethyl)amino)-5-fluorophenyl)-1H-indol-2-yl)-1H-indazol-5-yl)pyridin-3-yl)cyclopropanecarboxamide] | 21 nM | 9 nM | 75 nM | 174 nM
CCC(=O)Nc1cncc(-c2ccc3[nH]nc(-c4cc5c(-c6cc(F)cc(CNS(C)(=O)=O)c6)cccc5[nH]4)c3c2)c1 [Compound 477, N-(5-(3-(4-(3-Fluoro-5-(methylsulfonamidomethyl)phenyl)-1H-indol-2-yl)-1H-indazol-5-yl)pyridin-3-yl)propionamide] | 135 nM | 595 nM | 817 nM | 224 nM
CS(=O)(=O)NCc1cc(F)cc(-c2cccc3[nH]c(-c4n[nH]c5ccc(-c6cncc(NC(=O)c7ccccc7)c6)cc45)cc23)c1 [Compound 487, N-(5-(3-(4-(3-Fluoro-5-(methylsulfonamidomethyl)phenyl)-1H-indol-2-yl)-1H-indazol-5-yl)pyridin-3-yl)benzamide] | 650 nM | 2060 nM | 3180 nM | 313 nM
CN(C)Cc1cncc(-c2ccc3[nH]nc(-c4cc5c(-c6cc(F)cc(CNS(C)(=O)=O)c6)cccc5[nH]4)c3c2)c1 [Compound 489, N-(3-(2-(5-(5-((Dimethylamino)methyl)pyridin-3-yl)-1H-indazol-3-yl)-1H-indol-4-yl)-5-fluorobenzyl)methanesulfonamide] | 120 nM | 1060 nM | 568 nM | 406 nM
CS(=O)(=O)NCc1cc(F)cc(-c2cccc3[nH]c(-c4n[nH]c5ccc(-c6cncc(CN7CCCCC7)c6)cc45)cc23)c1 [Compound 491, N-(3-Fluoro-5-(2-(5-(5-(piperidin-1-ylmethyl)pyridin-3-yl)-1H-indazol-3-yl)-1H-indol-4-yl)benzyl)methanesulfonamide] | 540 nM | 5450 nM | 1490 nM | 833 nM
CS(=O)(=O)NCc1cc(F)cc(-c2cccc3[nH]c(-c4n[nH]c5ccc(-c6cncc(NC(=O)C7CC7)c6)cc45)cc23)c1 [Compound 496, N-(5-(3-(4-(3-Fluoro-5-(methylsulfonamidomethyl)phenyl)-1H-indol-2-yl)-1H-indazol-5-yl)pyridin-3-yl)cyclopropanecarboxamide] | 130 nM | 991 nM | 1030 nM | 399 nM
CCNCc1cncc(-c2ccc3[nH]nc(-c4cc5ncccc5[nH]4)c3c2)c1 [Compound 510, N-((5-(3-(1H-pyrrolo[3,2-b]pyridin-2-yl)-1H-indazol-5-yl)pyridin-3-yl)methyl)ethanamine] | 464 nM | 98 nM | 345 nM | 1590 nM
c1cncc(-c2cccc3[nH]c(-c4n[nH]c5ccc(-c6cn[nH]c6)cc45)cc23)c1 [Compound 583, 5-(1H-Pyrazol-4-yl)-3-(4-(pyridin-3-yl)-1H-indol-2-yl)-1H-indazole] | 49 nM | 78 nM | 128 nM | 501 nM
O=C(CC1CCCCC1)Nc1cncc(-c2ccc3[nH]nc(-c4cc5c(-c6ccsc6)cccc5[nH]4)c3c2)c1 [Compound 707, 2-Cyclohexyl-N-(5-(3-(4-(thiophen-3-yl)-1H-indol-2-yl)-1H-indazol-5-yl)pyridin-3-yl)acetamide] | 570 nM | 1300 nM | 2130 nM | > 10000 nM
